ChEMBL document CHEMBL1157672, “Detection of multiple network-based allosteric interactions between peptides and arrays of DNA binding sites” (Bioorg Med Chem, 2010)
Values belong to the compound of their own block, whether it stands above or below them. Calls of active or inactive are those of the source. The rule behind the calls is not given here.

What was measured:
Type in all cases: nucleic-acid assay
Nucleic Acid [1] = assay: Binding affinity to 5'-TTTCTCCT-3' sequence of Escherichia coli 135-mer duplex pBR322 fragment after 60 mins by DNase I footprinting
Nucleic Acid [2] = assay: Binding affinity to 5'-AATAC-3' sequence of Escherichia coli 158-mer duplex pBR322 fragment after 60 mins by DNase I footprinting
Nucleic Acid [3] = assay: Binding affinity to 11-mer duplex 3A-3T DNA minor groove at peptide to duplex ratio of 2:1 after 60 mins by circular dichroism spectroscopy
Nucleic Acid [4] = assay: Binding affinity to d(AAA)-d(TTT) sequence of Escherichia coli 135-mer duplex pBR322 fragment assessed as allosteric interaction after 60 mins by DNase I footprinting
Nucleic Acid [5] = assay: Binding affinity to 5'-TTTCTCCT-3' sequence of Escherichia coli 135-mer duplex pBR322 fragment at 50 to 2000 nM after 60 mins by DNase I footprinting
Nucleic Acid [6] = assay: Binding affinity to 11-mer duplex 4A-4T DNA at 0.2 to 7 uM after 60 mins by circular dichroism spectroscopy
Nucleic Acid [7] = assay: Binding affinity to 5'-TTTCT-3' sequence of Escherichia coli 81-mer duplex pBR322 fragment after 60 mins by DNase I footprinting
Nucleic Acid [8] = assay: Binding affinity to 5'-AATAC-3' sequence of Escherichia coli 158-mer duplex pBR322 fragment at 10 to 2000 nM after 60 mins by DNase I footprinting
Nucleic Acid [9] = assay: Binding affinity to 5'-AGAAAATAC-3' sequence of Escherichia coli 158-mer duplex pBR322 fragment at 10 to 2000 nM after 60 mins by DNase I footprinting
Nucleic Acid [10] = assay: Binding affinity to 11-mer duplex 4A-4T DNA minor groove at peptide to duplex ratio of 2:1 after 60 mins by circular dichroism spectroscopy
Nucleic Acid [11] = assay: Binding affinity to 11-mer duplex 3A-3T DNA at 0.2 to 7 uM after 60 mins by circular dichroism spectroscopy
Nucleic Acid [12] = assay: Binding affinity to 5'-AAAAT-3' sequence of Escherichia coli 81-mer duplex pBR322 fragment after 60 mins by DNase I footprinting
Nucleic Acid [13] = assay: Binding affinity to 5'-AGAAAATAC-3' sequence of Escherichia coli 158-mer duplex pBR322 fragment after 60 mins by DNase I footprinting
Nucleic Acid [14] = assay: Binding affinity to d(AAAA)-d(TTTT) sequence of Escherichia coli 158-mer duplex pBR322 fragment assessed as allosteric interaction after 60 mins by DNase I footprinting
Nucleic Acid [15] = assay: Binding affinity to 5'-TTT-3' sequence of Escherichia coli 135-mer duplex pBR322 fragment at 12 nM after 60 mins by DNase I footprinting
Nucleic Acid [16] = assay: Binding affinity to 5'-AGAAAATACCG-3' sequence of Escherichia coli 158-mer duplex pBR322 fragment at 1 to 3000 nM after 60 mins by DNase I footprinting
Nucleic Acid [17] = assay: Binding affinity to 5'-AATACCG-3' sequence of Escherichia coli 158-mer duplex pBR322 fragment at 1 to 3000 nM after 60 mins by DNase I footprinting
Nucleic Acid [18] = assay: Binding affinity to 5'-AGAAAATACCG-3' sequence of Escherichia coli 158-mer duplex pBR322 fragment after 60 mins by DNase I footprinting
Nucleic Acid [19] = assay: Binding affinity to 5'-TTT-3' sequence of Escherichia coli 135-mer duplex pBR322 fragment after 60 mins by DNase I footprinting
Nucleic Acid [20] = assay: Binding affinity to 5'-TTTCTCC-3' sequence of Escherichia coli 135-mer duplex pBR322 fragment at 1 to 3000 nM after 60 mins by DNase I footprinting
Nucleic Acid [21] = assay: Binding affinity to 5'-TTTCTCC-3' sequence of Escherichia coli 135-mer duplex pBR322 fragment after 60 mins by DNase I footprinting
Nucleic Acid [22] = assay: Binding affinity to 5'-AATACCG-3' sequence of Escherichia coli 158-mer duplex pBR322 fragment after 60 mins by DNase I footprinting
Nucleic Acid [23] = assay: Binding affinity to 5'-AATACC-3' sequence of Escherichia coli 158-mer duplex pBR322 fragment after 60 mins by DNase I footprinting
Nucleic Acid [24] = assay: Binding affinity to 5'-AATACC-3' sequence of Escherichia coli 158-mer duplex pBR322 fragment at 1 to 3000 nM after 60 mins by DNase I footprinting
Nucleic Acid [25] = assay: Binding affinity to 5'-TTTTCTCCT-3' sequence of Escherichia coli 135-mer duplex pBR322 fragment after 60 mins by DNase I footprinting
Nucleic Acid [26] = assay: Binding affinity to 5'-GAAAATA-3' sequence of Escherichia coli 158-mer duplex pBR322 fragment at 1 to 3000 nM after 60 mins by DNase I footprinting
Nucleic Acid [27] = assay: Binding affinity to 5'-GAAAATA-3' sequence of Escherichia coli 158-mer duplex pBR322 fragment after 60 mins by DNase I footprinting
Nucleic Acid [28] = assay: Binding affinity to 5'-TT-3' sequence of Escherichia coli 135-mer duplex pBR322 fragment at 1 to 3000 nM after 60 mins by DNase I footprinting
Nucleic Acid [29] = assay: Binding affinity to 5'-TTTTCTC-3' sequence of Escherichia coli 81-mer duplex pBR322 fragment after 60 mins by DNase I footprinting
Nucleic Acid [30] = assay: Binding affinity to 11-mer duplex 4A-4T DNA after 60 mins by circular dichroism spectroscopy
Nucleic Acid [31] = assay: Binding affinity to 5'-TTTTCTCCT-3' sequence of Escherichia coli 135-mer duplex pBR322 fragment at 1 to 3000 nM after 60 mins by DNase I footprinting
Nucleic Acid [32] = assay: Binding affinity to 5'-TT-3' sequence of Escherichia coli 135-mer duplex pBR322 fragment at 50 to 2000 nM after 60 mins by DNase I footprinting
Nucleic Acid [33] = assay: Binding affinity to 5'-TT-3' sequence of Escherichia coli 135-mer duplex pBR322 fragment after 60 mins by DNase I footprinting
Nucleic Acid [34] = assay: Binding affinity to 11-mer duplex 4A-4T DNA at 0.2 uM after 60 mins by circular dichroism spectroscopy

Ka (Nucleic Acid [1]): 3.4 ×10⁶ /M
Ka (Nucleic Acid [2]): 2.5 ×10⁶ /M
Activity (Nucleic Acid [3]): Active
Activity (Nucleic Acid [4]): Active
Activity (Nucleic Acid [5]): Active
Activity (Nucleic Acid [6]): Active
Ka (Nucleic Acid [7]): 2.5 ×10⁶ /M
Activity (Nucleic Acid [8]): Active
Activity (Nucleic Acid [9]): Active
Activity (Nucleic Acid [10]): Active
Activity (Nucleic Acid [11]): Active
Ka (Nucleic Acid [12]): 1.4 ×10⁶ /M
Ka (Nucleic Acid [13]): 3.4 ×10⁶ /M
Activity (Nucleic Acid [14]): Active
SMILES: Cn1cc(NC(=O)c2cc(NC(=O)[C@@H](CCCCN)NC(=O)[C@H](CCCNC(=N)N)NC(=O)[C@@H]3C[C@@H](O)CN3C(=O)[C@@H](N)Cc3cnc[nH]3)cn2C)cc1C(=O)Nc1cc(C(=O)Nc2cc(C(=O)N[C@@H](Cc3cnc[nH]3)C(=O)N3C[C@H](O)C[C@H]3C(=O)N[C@@H](CCCNC(=N)N)C(=O)N[C@@H](CCCCN)C(N)=O)n(C)c2)n(C)c1

Activity (Nucleic Acid [15]): Active
Activity (Nucleic Acid [4]): Active
Activity (Nucleic Acid [16]): Active
Activity (Nucleic Acid [17]): Active
Ka (Nucleic Acid [18]): 3.2 ×10⁶ /M
Ka (Nucleic Acid [19]): 3.7 ×10⁶ /M
Activity (Nucleic Acid [20]): Active
Ka (Nucleic Acid [21]): 3.8 ×10⁶ /M
Activity (Nucleic Acid [14]): Active
Ka (Nucleic Acid [22]): 6.7 ×10⁷ /M
SMILES: Cn1cc(NC(=O)c2cc(NC(=O)[C@@H](CCCCN)NC(=O)[C@H](CCCNC(=N)N)NC(=O)[C@@H]3CCCN3C(=O)[C@@H](N)Cc3cnc[nH]3)cn2C)cc1C(=O)Nc1cc(C(=O)Nc2cc(C(=O)N[C@@H](Cc3cnc[nH]3)C(=O)N3CCC[C@H]3C(=O)N[C@@H](CCCNC(=N)N)C(=O)N[C@@H](CCCCN)C(N)=O)n(C)c2)n(C)c1

Ka (Nucleic Acid [23]): 2.5 ×10⁶ /M
Activity (Nucleic Acid [24]): Active
Activity (Nucleic Acid [3]): Active
Ka (Nucleic Acid [25]): 2.2 ×10⁶ /M
Activity (Nucleic Acid [4]): Active
Activity (Nucleic Acid [26]): Active
Ka (Nucleic Acid [27]): 3.8 ×10⁶ /M
Activity (Nucleic Acid [28]): Active
Ka (Nucleic Acid [29]): 1.9 ×10⁶ /M
Activity (Nucleic Acid [30]): Dose-dependent effect
Activity (Nucleic Acid [10]): Active
Activity (Nucleic Acid [31]): Active
Activity (Nucleic Acid [11]): Active
Activity (Nucleic Acid [32]): inactive
Ka (Nucleic Acid [33]): 2.7 ×10⁶ /M
Ka (Nucleic Acid [12]): 2.1 ×10⁶ /M
Activity (Nucleic Acid [34]): Active
Activity (Nucleic Acid [14]): Active
SMILES: Cn1cc(NC(=O)c2cc(NC(=O)[C@@H](CCCCN)NC(=O)[C@H](CCCNC(=N)N)NC(=O)[C@@H]3C[C@@H](O)CN3C(=O)[C@@H](N)Cc3cnc[nH]3)cn2C)cc1C(=O)Nc1cc(C(=O)N[C@@H](CCCCN)C(=O)N[C@@H](CCCNC(=N)N)C(N)=O)n(C)c1
